Literature values in US20160220684A1, “COMPOSITION AND METHOD FOR RELIEVING PAIN AND INFLAMMATION, TREATMENT OF ERECTILE DYSFUNCTION, AND TREATMENT OF ACNE” (priority 2014, published 2016).

System: intractable pain
Conditions: patients with metastatic cancer refractory to opioids; article published May 28, 2015

Compound: O=C(c1ccccc1)c1ccc2n1CCC2C(=O)O (racemic) [keterolac, (±)-5-benzoyl-2,3-dihydro-1H-pyrrolizine-1-carboxylic acid, compounded with 2-amino-2-(hydroxymethyl)-1,3-propanediol]
- analgesic effectiveness in intractable pain: only effective non-opiod analgesic
